From US20070003480A1, “Liposomal composition comprising haptotactic peptides” (Hapto Biotech, Inc., priority 2002, published 2007)
Entries after “also recorded” stand apart in the source; their conditions may differ.

Assays:
[1] = test system: bovine aortic endothelial cells; assay: Haptide-mediated Doxil liposome uptake by bovine aortic endothelial cells, fluorescence microscopy; assay type: cell-based; details: Doxil (doxorubicin-loaded) liposomes; FIG. 5
Protocol: (§1) Human fibroblasts or bovine aortic endothelial cells were seeded and grown in CO2 incubator for 24 hours in a 4-chamber cell culture coverslip slide (source) used for microscopy. Then, they were exposed to either free ^FITCHaptide or to a ^FITCHaptotactic Peptide-Liposomal composition. Two liposome types were examined, namely liposomes composed of hydrogenated phosphatidyl serine, PEG and cholesterol, containing the fluorescent dye Rhodamine; and clinical grade liposomes containing the anti-cancer drug doxorubicin (Doxil liposomes). Both rhodamine and doxorubicin are fluorescent compounds. Thus, the liposome penetration and distribution within cells could be tracked by fluorescence microscopy or FACS. Typically, 20 μl of fluorescent Haptotactic Peptide-Liposomal composition were mixed with 180 μl PBS and added to the cell chamber. Incubation was continued for up to 1 hour at 37 or 4° C. The incubation was stopped at different time points by two subsequent washes with PBS, followed by fixation with 500 μl of 4% formaldehyde for 1 hr. The samples were then washed again with PBS. Coverslips with the fixed cells were covered by PBS-glycerol 80%, DABCO 2%, and an additional coverslip for microscopic examination.

[2] = Particle size by dynamic light scattering; assay type: physicochemical; details: Haptide solution 1 mg/mL, 0.45 μm filtered, 25° C., mean of three measurements
Protocol: It has been previously observed by gel filtration that haptides tend to form aggregates (Gorodetsky R, Vexler A, Shamir M, An J, Levdansky L, Shimeliovich I, Marx G. Exp Cell Res. 287:116-129 (2003). A solution of the Haptide preCγ (1 mg/mL) was passed through a 0.45 μm filter and then measured by dynamic light scattering at 25° C. The average particle size (a mean value of three measurements) was ˜145 nm (FIG. 3), showing that such particle is an aggregate of few hundreds of preCγ monomers.
Similarly, Doxil liposomes were measured and observed to have a mean diameter of 80 nm. However, when the preCγ-liposomal composition was formed, the preCγ Haptides aggregates disappeared in correlation with the liposome/Haptide weight ratio (FIG. 3). […] At a doxil/haptide weight ratio of >10^−2, the almost totally all the Haptides aggregates were solubilized within the liposomes as indicated by the disappearance of larger Haptide particles, forming the haptotactic-peptide liposomal composition.

[3] = test system: Human fibroblasts; assay: Haptide-mediated liposome uptake by human fibroblasts, fluorescence microscopy; assay type: cell-based; details: for liposome uptake into the cytoplasm of fibroblasts: rhodamine-loaded liposomes, FIG. 4
Protocol: as §1

[4] = test system: BAEC; assay: Cell adhesion (haptotaxis) assay, Sepharose bead-bound ligand; assay type: cell-based, bovine; details: ligand bound to Sepharose beads
Protocol: (§2) The attachment of Sepharose beads (SB)-ligand to cells in nearly confluent cultures grown on plastic was measured as previously described (Gorodetsky R. et al. 1998. J Lab Clin Med 131, 269-280; Gorodetsky R. et al. 1999. J Invest Dermatol 112:866-872). Essentially, about 20-150 μl of suspended (50% v/v) SB-Haptide or SB-fibrinogen were added to near confluent cell cultures in 6-24 well plates and dispersed by gentle shaking for 1 min. The plates were then incubated for up to 4 days. After one day the number of SB tethered to cell layer was counted with an inverted phase or Numarsky microscopy. Typically, ˜300 SB (but not less then 200) were counted in each well, and the ratio of the number of SB attached to the cells in each well, was calculated relative to the total number of SB. At least 3 wells were measured for each variant and each experiment was repeated at least 3 times.

[5] = test system: HF; assay: as above; assay type: cell-based, human; details: ligand bound to Sepharose beads
Protocol: as §2

[6] = test system: human fibroblasts (HF); assay: Uptake of FITC-labelled peptides by cells, confocal laser fluorescence microscopy; assay type: cell-based; details: visual score (0-4) from fluorescence micrographs; FITC-labelled ligand 100 μg/ml (40 μM), 1 h, 37° C.
Protocol: Fluorescent microscopy was carried out with Olympus or Nikon fluorescence microscopes. Confocal laser microscopy was done with a computerized Zeiss Confocal Axiomate microscope (LSM410) with multiple excitation wavelengths. Peptides were tagged with fluorescein isothiocyanate (FITC) for visualization. For examination of ^FITCpeptides uptake by human fibroblasts (HF) the cells were grown on glass coverslips to near confluence and then incubated with 100 μg/ml (40 μM) ^FITCpeptides at 37° C. After 1 h, the cells were washed and fixed in 0.5% buffered glutaraldehyde. Coverslips with the cells were placed on a microscope slide with PBS-glycerol 80% with 2% DABCO and examined. The representative fields of cells were visualized by Numarski optics and confocal scans of cell fluorescence intensity in 1 μm slices were recorded at the FITC wavelength (excitation 488 nm, emission 515 nm) and later reconstructed. Uptake of ^FITCligand by HF was scored visually (0-4). The fluorescent haptotactic peptides were clearly seen taken up by the HF cells, and the nuclei remained relatively free of ^FITCHaptide (FIGS. 1A & B). […] By contrast, the uptake of the control ^FITCCα peptide by the cells was negligible.

| Substance | liposome uptake into endothelial cells [1] | average particle size [2] | liposome uptake into the cytoplasm of fibroblasts [3] | % Haptotaxis (BAEC, 1 day) [4] | % Haptotaxis (HF, 1 day) [5] | Cell Uptake (HF) [6] | concentration-dependent liposome uptake by human fibroblasts ([3]; Doxorubicin-loaded liposomes, varying Haptide concentration, FIG. 6) |
| --- | --- | --- | --- | --- | --- | --- | --- |
| KTRWYSMKKTTMKIIPFNRL (Equivalent to the c-terminus of fibrinogen pre-gama chain) [preCγ] | facilitated liposome uptake | ~145 nm | facilitated liposome uptake | – | – | – | – |
| fibrinogen | – | – | – | 100% | 100% | +2 | – |
| KGSWYSMRKMSMKIRPFFPQQ (Equivalent to the c-terminus of fibrinogen beta-chain) [Cβ] | facilitated liposome uptake | – | facilitated liposome uptake | 100% | 100% | +4 | increased liposome uptake; also recorded: directly correlated to the Haptide (Cβ) concentration |
| RGADYSLRAVRMKIRPLTVTQ (Equivalent to the c-terminus of fibrinogen alphaE chain) [CαE] | efficient in enhancing doxorubicin-liposome (Doxil) uptake | – | Low induction | 75% | 60% | +3 | – |
